Key:
[1] = molecular target: human nociceptin/orphanin FQ peptide receptor (hNOP) (Homo sapiens (Human), UniProt P41146); format: binding
[2] = molecular target: human mu-opioid receptor (hMOP) (Homo sapiens (Human), UniProt P35372); format: binding
[3] = molecular target: human delta-opioid receptor (hDOP) (Homo sapiens (Human), UniProt P41143); assay: hDOP receptor binding assay (SPA, [3H]2-D-Ala-deltorphin II); conditions: concentration not given; neighbouring values @1μM

Structure (SMILES) | hNOP % @1μM (given instead of Ki) [1] [% @1μM] | hMOP % @1μM (given instead of Ki) [2] [% @1μM] | DOP % [3]
CCN(C)[C@]1(c2ccccc2)CC[C@]2(CC1)CN(CC(C)(C)C(N)=O)C(=O)N2 [SC_5064, CIS-3-[8-(Ethyl-methyl-amino)-2-oxo-8-phenyl-1,3-diazaspiro[4.5]decan-3-yl]-2,2-dimethyl-propionamide] | 3 | 3 | (DOP 20%)
CCN(C)C1(c2ccccc2)CCC2(CC1)CN(CC(C)(C)C(N)=O)C(=O)N2C (stereo not drawn) [SC_5066, CIS-3-[8-(Ethyl-methyl-amino)-1-methyl-2-oxo-8-phenyl-1,3-diazaspiro[4.5]decan-3-yl]-2,2-dimethyl-propionamide] | 0 | 7 | (DOP 22%)

From US10793528B2 (priority 2016, dated 2020)
